Each structure is given as a SMILES string.

In one data set the test system is peritoneal mast cells. Kind of data set: Mouse peritoneal mast cell histamine release assay. In kind it is cell-based. The settings on record: WT vs MrgprB2^MUT peritoneal mast cells. As for the experimental part: Mast cells were purified as with the calcium imaging assay and allowed to recover for 2 hours in DMEM with 10% FBS and 25 ng/ml mouse stem cell factor in a 37° C. incubator with 5% CO2. Cells were then spun down, resuspended in CIB, counted, and plated at 300 cells/well in 75 μl CIB in 96-well plates coated with 20 μg/ml fibronectin (Sigma). They were allowed to adhere to the substrate for 45 minutes at 37° C. in atmospheric conditions (i.e. CO2 levels were not adjusted) before assay. […] After 5 minutes, 40 μl of supernatant was aspirated, diluted with 40 μl CIB and frozen at −80° C. until histamine levels were determined. Anti-IgE treatment was similar, except that cells were incubated for 30 minutes at 37° C. after anti-IgE was added before aspiration of supernatant. Histamine content was determined by using an HTRF histamine assay kit (Cisbio Assays) according to the manufacturer's instructions.

Data set [1] has as its system WT and MrgprB2^MUT mice. Kind of data set: Systemic anaphylaxis assay (body core temperature). The class given is in vivo, mouse. The settings on record: ciprofloxacin i.v. 1.5 mg in 125 μl saline after propranolol, much smaller drop in MrgprB2^MUT. The procedure:
To minimize stress, animals were transported to the procedure area the day before injections. Adult male and female mice up to 8 months of age (25 to 35 grams) were given an intraperitoneal injection of 80 μg propranolol in saline (2 mg/ml) immediately after removal from their cages, and then placed back in their cages for 30 minutes before intravenous injections. The intravenous injections were performed on one mouse at a time. For each injection, a mouse was placed in a transport box and brought to a room with no other mice, to minimize stress from vocalizations during injection. The mouse was then placed in a restrainer, and the injection was performed within 4 minutes of restraint because it was observed that longer restraint times affected body core temperature independent from the injection. […] The injection was determined to be successful only when all of the criteria were met: blood appeared in the syringe after needle insertion, all tail veins were visible after injection, and the mouse bled slightly from the injection site after needle withdrawal. The injection site was swabbed until blood stopped flowing, the mouse was placed in a separate cage from its housing cage, one mouse per cage, and returned to the room it was brought from. […] Body core temperature was measured with a rectal thermometer.

The next data set deals with LAD2 human mast cells. Kind of data set: LAD2 degranulation assay (β-hexosaminidase release), with MrgprX2 siRNA knockdown. The class given is cell-based. As to conditions: compound 48/80 0.1, mastoparan 5, icatibant 10, atracurium 25, ciprofloxacin 75 μg/ml. As for the experimental part:
LAD2 cells were sensitized for 20 hours with 0.5 μg/ml biotin-conjugated human IgE (Abbiotec). Cells were washed, resuspended in Hepes buffer (10 mM HEPES, 137 mM NaCl, 2.7 mM KCl, 0.38 mM Na2HPO4.7H2O, 5.6 mM glucose, 1.8 mM CaCl2.H2O, 1.3 mM MgSO4.7H2O, 0.4% BSA, pH 7.4) at 0.025×10^6 per well, and then stimulated with 0.1 μg/ml streptavidin (Life Technologies) or other agonists at the indicated concentrations for 30 minutes at 37° C./5% CO2. The β-hexosaminidase released into the supernatants and in cell lysates was quantified by hydrolysis of p-nitrophenyl N-acetyl-β-D-glucosamide (Sigma-Aldrich) in 0.1 M sodium citrate buffer (pH 4.5) for 90 minutes at 37° C. The percentage of β-hexosaminidase release was calculated as a percent of total content.
LAD2 cells were washed with medium, suspended at 0.5×10^6 cells per well, and transfected with 100 nm MrgprX2 siRNA and control siRNA in antibiotic-free StemPro medium using Lipofectamine 3000 (Life Technologies) according to the manufacturer's instruction at 37° C./5% CO2. At 48 hours, knockdown was confirmed by reverse-transcriptase PCR, and the cells were used for degranulation assays.

For data set [2], the system named is WT and MrgprB2^MUT mice. The data set can be described thus: Hindpaw swelling and Evans Blue extravasation. In kind it is in vivo, mouse. The procedure:
Adult male mice up to 8 months of age were anesthetized with an i.p. injection of 50 mg/kg pentobarbital (Sigma). 15 minutes after induction of anesthesia, mice were injected i.v. with 50 μl of 12.5 mg/ml Evans Blue (Sigma) in saline. 5 minutes later, 5 μl of the test substance (or 7 μl of anti-IgE) was administered by intraplantar injection in one paw and saline was administered in the other paw. Paw thickness was measured by calipers immediately after injection. 15 minutes later (30 minutes after anti-IgE), paw thickness was measured again and mice were sacrificed by decapitation. Paw tissue was collected, dried for 24 hours at 50° C., and weighed. Evans Blue was extracted by a 24 hour incubation in formamide at 50° C., and the O.D. was read at 620 nm using a spectrophotometer. For studies using ketotifen, mice were injected i.p. with 25 μl of a 10 mg/ml solution of ketotifen at the same time as pentobarbital.

Consider `O=C(O)c1cn(C2CC2)c2cc(N3CCNCC3)c(F)cc2c1=O` [ciprofloxacin], for which the “histamine release from WT peritoneal mast cells (MrgprB2^MUT released substantially less)” value with peritoneal mast cells is “induced histamine release”. Also, the “change in body temperature” value in the data set on WT and MrgprB2^MUT mice [1] is reported as “induced a rapid drop in body temperature”. Also, the “β-hexosaminidase release in MrgprX2 siRNA vs control siRNA cells” value in the data set with LAD2 human mast cells is “significantly reduced”.
`NC(N)=NCCC[C@@H](N)C(=O)N[C@@H](CCCN=C(N)N)C(=O)N1CCC[C@H]1C(=O)N1C[C@H](O)C[C@H]1C(=O)NCC(=O)N[C@@H](Cc1cccs1)C(=O)N[C@@H](CO)C(=O)N1Cc2ccccc2C[C@@H]1C(=O)N1[C@H](C(=O)N[C@@H](CCCN=C(N)N)C(=O)O)C[C@@H]2CCCC[C@@H]21` [icatibant]: in the data set with WT and MrgprB2^MUT mice [2] (icatibant at the clinical concentration, intraplantar 10 mg/ml, 5 μl, 15 minutes), the “hindpaw extravasation and swelling in WT mice but not in MrgprB2^MUT mice” value is “induced extensive extravasation and swelling”. For the same compound, in the data set on WT and MrgprB2^MUT mice [2] (icatibant intraplantar, no ketotifen pretreatment, n=4), the “increase in paw thickness, without ketotifen” value was 40.7±2.1%. In addition, the “histamine release from WT peritoneal mast cells (MrgprB2^MUT released substantially less)” value in the data set with peritoneal mast cells is “induced histamine release”. Moreover, in the data set with LAD2 human mast cells, the “β-hexosaminidase release in MrgprX2 siRNA vs control siRNA cells” value is reported as “significantly reduced”.

(Values after US10696971B2, “MrgprX2/MrgprB2 expressing cell based assay to detect pseudo-allergic drug reactions and to identify blockers to prevent the adverse reactions” (The Johns Hopkins University, priority 2014, dated 2020).)
